BindingDB's records for doi:10.1124/jpet.302.1.328 (University of North Carolina at Chapel Hill, 2002)
Values joined by “and” are separate entries in the source; they are usually repeats but may differ in a detail not shown here. Equal entries are not always repeated.

The compounds below were run against Histamine H1 receptor (Cavia porcellus, UniProt P31389).
Sequence of Histamine H1 receptor (P31389 whole entry): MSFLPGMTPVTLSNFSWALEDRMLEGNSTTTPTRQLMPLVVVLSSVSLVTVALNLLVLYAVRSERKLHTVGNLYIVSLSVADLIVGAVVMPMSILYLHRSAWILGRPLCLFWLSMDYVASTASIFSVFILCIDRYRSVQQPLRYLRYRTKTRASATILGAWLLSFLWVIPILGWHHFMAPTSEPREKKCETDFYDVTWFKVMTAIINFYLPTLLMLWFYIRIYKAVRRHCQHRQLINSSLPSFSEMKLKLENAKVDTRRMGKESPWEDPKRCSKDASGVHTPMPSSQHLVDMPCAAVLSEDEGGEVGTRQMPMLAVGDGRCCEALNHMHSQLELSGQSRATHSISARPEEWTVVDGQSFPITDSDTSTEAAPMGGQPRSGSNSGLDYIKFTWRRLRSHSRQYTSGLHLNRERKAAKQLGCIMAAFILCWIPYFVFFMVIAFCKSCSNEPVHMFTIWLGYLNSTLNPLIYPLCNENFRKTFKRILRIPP

| Structure (SMILES) | Ki |
| --- | --- |
| O=C(O)C=CC(=O)Oc1ccc(Cl)cc1 [NSC_6445134] | 98 nM and 80.1 nM |
| CN(C)[C@H]1Cc2ccccc2[C@@H](c2ccccc2)C1 [cis-H2-PAT(-)] | 3.92 nM and 4.91 nM |
| CN(C)[C@@H]1Cc2ccccc2[C@H](c2ccccc2)C1 [cis-H2-PAT(+)] | 53.8 nM and 77.7 nM |
| CN(C)C1Cc2ccccc2C(c2ccccc2)C1 (stereo not drawn) [cis-H2-PAT(+/-)] | 10.9 nM and 7.87 nM and 1.53 nM and 1.37 nM |
| Cc1ccc(/C(=C\CN2CCCC2)c2ccccn2)cc1 [Actahist] | 0.93 nM and 0.69 nM |
| Nc1nc2c(ncn2[C@@H]2O[C@H](COP(=O)(O)OP(=O)(O)OP(=O)(O)O)C(O)C2O)c(=O)[nH]1 (stereo partly drawn) [+ 1 mM GTP] | > 10000 nM |
| CN(C)[C@@H]1Cc2ccccc2[C@@H](c2ccccc2)C1 [trans-PAT] | 1.15 nM and 0.58 nM |
| CN(C)[C@H]1Cc2ccccc2[C@H](c2ccccc2)C1 [trans-H2-PAT(+)] | 23 nM and 11.5 nM |
